Here are results for two compounds from patent publication US20020110815A1, “Novel genes, compositions and methods for the identification, assessment, prevention, and therapy of human cancers” (priority 2000, published 2002).

One assay deals with MCF-7/AdrRes. To be noted: breast, TAXOL resistant cell line; cited from earlier work.
The test system of a further assay is MDA-MB-435. To be noted: MDA-MB-435, breast, TAXOL sensitive cell line; cited from earlier work.
The next assay concerns HOP-92. Conditions: HOP-92, non-small cell lung carcinoma, TAXOL resistant cell line; cited from earlier work.
The next assay relates to SK-MEL-28. To be noted: SK-MEL-28, melanoma, TAXOL resistant cell line; cited from earlier work.
The subject of assay [1] is TAXOL resistant cancer cell lines. The assay is described as follows: TAXOL growth inhibition (GI50), mean of TAXOL resistant cell lines. To be noted: mean of the nine TAXOL resistant cell lines of Table B. It is filed as cell-based, human. On the procedure: (§1) One group of nine cell lines was determined to be sensitive to TAXOL (Table C), the other group of nine cell lines was determined to be resistant to TAXOL (Table B). Sensitivity to TAXOL was based on known GI50 values for these cells, which for this study was defined as the concentration of TAXOL required to inhibit growth of the cell line by 50%. More precisely, the quantity used in the calculation is the potency measure −log {GI50}. Pooled RNA from TAXOL sensitive cancer cell lines was used as tester against driver RNA pooled from TAXOL resistant cancer cell lines. The results of this subtractive library are shown in SEQ ID NOS: 1-127, SEQ ID NOS: 398-517 and SEQ ID NOS: 746-841. Pooled RNA from TAXOL resistant cancer cell lines was used as tester against driver RNA pooled from TAXOL sensitive cancer cell lines. The results of this subtractive library are shown in SEQ ID NOS: 128-397, SEQ ID NOS: 518-745 and SEQ ID NOS: 842-1046.

Another assay concerns MALME-3M. To be noted: melanoma, TAXOL resistant cell line; cited from earlier work.
The test system of a further assay is HT-29. To be noted: HT-29, colon, TAXOL sensitive cell line; cited from earlier work.
The test system of the next assay is MCF-7. Conditions: MCF-7, breast, TAXOL sensitive cell line; cited from earlier work.
Another assay has as its system ACHN. To be noted: renal, TAXOL resistant cell line; cited from earlier work.
The next assay concerns SN12C. To be noted: renal, TAXOL sensitive cell line; cited from earlier work.
Another assay concerns OVCAR-4. To be noted: OVCAR-4, ovarian, TAXOL resistant cell line; cited from earlier work.
A further assay relates to EKVX. Conditions: non-small cell lung carcinoma, TAXOL resistant cell line; cited from earlier work.
In another assay the test system is SK-MEL-5. Conditions: SK-MEL-5, melanoma, TAXOL sensitive cell line; cited from earlier work.
A further assay deals with T-47D. To be noted: breast, TAXOL resistant cell line; cited from earlier work.
The test system of a further assay is NCI-H460. To be noted: NCI-H460, non-small cell lung carcinoma, TAXOL sensitive cell line; cited from earlier work.
Assay [2] concerns TAXOL sensitive cancer cell lines. Briefly: TAXOL growth inhibition (GI50), mean of TAXOL sensitive cell lines. It counts as cell-based. Conditions: Homo sapiens; mean of the nine TAXOL sensitive cell lines of Table C; read-out: Log GI 50 for TAXOL (Mean) (converted). On the procedure:
as §1

Another assay concerns HCT-15. To be noted: HCT-15, colon, TAXOL resistant cell line; cited from earlier work.
A further assay concerns OVCAR-3. To be noted: OVCAR-3, ovarian, TAXOL sensitive cell line; cited from earlier work.
The next assay relates to SK-MEL-2. To be noted: SK-MEL-2, melanoma, TAXOL sensitive cell line; cited from earlier work.
The subject of the next assay is NCI-H522. Conditions: NCI-H522, non-small cell lung carcinoma, TAXOL sensitive cell line; cited from earlier work.
The next assay has as its system tumor. To be noted: animal models; cited from earlier work.

Take `CC(=O)O[C@H]1C(=O)[C@@]2(C)[C@H]([C@H](OC(=O)c3ccccc3)[C@]3(O)C[C@H](OC(=O)[C@H](O)[C@@H](NC(=O)c4ccccc4)c4ccccc4)C(C)=C1C3(C)C)[C@]1(OC(C)=O)CO[C@@H]1C[C@@H]2O` [TAXOL]: the “Log GI 50 for TAXOL” value with MCF-7/AdrRes is −5.5; with MDA-MB-435 it was −8.6; with HOP-92, −7.2; in the assay with SK-MEL-28 it was −7.1; with MALME-3M, −6.8; in the assay on HT-29 it was −8.6. In addition, the “Log GI 50 for TAXOL” value was −8.5 in the assay on MCF-7; −5.8 in the assay on ACHN; −8.5 in the assay with SN12C; −6.3 in the assay on OVCAR-4; −6.6 in the assay with EKVX; −8.4 with SK-MEL-5. Moreover, the “Log GI 50 for TAXOL” value in the assay with T-47D is −6.9; with NCI-H460, −8.5; in the assay with HCT-15, −6.7; in the assay on OVCAR-3, −8.5; in the assay on SK-MEL-2, −8.3; with NCI-H522 it was −8.5. Also, the “Log GI 50 for TAXOL (Mean)” value in [1] is reported as −6.5. Moreover, in [2], the GI50 is 3.16 nM.

Regarding `CC(=O)O[C@@]12CO[C@@H]1C[C@H](O)[C@@]1(C)C(=O)[C@H](O)C3=C(C)[C@@H](OC(=O)[C@H](O)[C@@H](NC(=O)OC(C)(C)C)c4ccccc4)C[C@@](O)([C@@H](OC(=O)c4ccccc4)[C@H]21)C3(C)C` [Taxotere, docetaxel], in the assay with tumor, the anti-tumor activity entry was “good anti-tumor activity”.
